Data reported in ChEMBL document CHEMBL3286293, “Optimization of GPR40 Agonists for Type 2 Diabetes” (ACS Med Chem Lett, 2014).
Calls of active or inactive are those of the source. The calls are words filed in the database; no cut-off is given here.

What was measured:
[1] = target: T1, Free fatty acid receptor 1 (Homo sapiens, UniProt O14842); assay: Agonist activity at human GPR40 expressed in CHO cells by aequorin assay; type: cell-based
[2] = target: T1, Free fatty acid receptor 1; assay: Agonist activity at human GPR40 expressed in mouse A9 cells by inositol phosphate accumulation assay; type: functional, cell-based
[3] = Mean residence time in rat; type: ADME, organism-based; conditions: in vivo
[4] = Volume of distribution at steady state in rat; type: ADME, organism-based; conditions: in vivo, read-out: Vdss
[5] = Oral bioavailability in rat at 2 mg/kg; type: ADME, organism-based; conditions: in vivo
[6] = Half life in rat; type: ADME, organism-based; conditions: in vivo
[7] = Half life in dog; type: ADME, organism-based, Canis lupus familiaris; conditions: in vivo
[8] = Volume of distribution at steady state in dog; type: ADME, organism-based, Canis lupus familiaris; conditions: in vivo, read-out: Vdss
[9] = Oral bioavailability in dog at 2 mg/kg; type: ADME, organism-based, Canis lupus familiaris; conditions: in vivo
[10] = Half life in cynomolgus monkey; type: ADME, organism-based, Macaca fascicularis; conditions: in vivo
[11] = Volume of distribution at steady state in cynomolgus monkey; type: ADME, organism-based, Macaca fascicularis; conditions: in vivo, read-out: Vdss
[12] = Oral bioavailability in cynomolgus monkey at 2 mg/kg; type: ADME, organism-based, Macaca fascicularis; conditions: in vivo
[13] = Ratio of drug level in brain to plasma in rat at 5 mg/kg, po after 3 hrs; type: ADME, organism-based; design: dose 5 mg/kg, route oral; conditions: brain and plasma, read-out: BPR
[14] = target: Voltage-gated inwardly rectifying potassium channel KCNH2 (Homo sapiens, UniProt Q12809); assay: Inhibition of human ERG
Voltage-gated inwardly rectifying potassium channel KCNH2, sequence (Q12809 whole entry): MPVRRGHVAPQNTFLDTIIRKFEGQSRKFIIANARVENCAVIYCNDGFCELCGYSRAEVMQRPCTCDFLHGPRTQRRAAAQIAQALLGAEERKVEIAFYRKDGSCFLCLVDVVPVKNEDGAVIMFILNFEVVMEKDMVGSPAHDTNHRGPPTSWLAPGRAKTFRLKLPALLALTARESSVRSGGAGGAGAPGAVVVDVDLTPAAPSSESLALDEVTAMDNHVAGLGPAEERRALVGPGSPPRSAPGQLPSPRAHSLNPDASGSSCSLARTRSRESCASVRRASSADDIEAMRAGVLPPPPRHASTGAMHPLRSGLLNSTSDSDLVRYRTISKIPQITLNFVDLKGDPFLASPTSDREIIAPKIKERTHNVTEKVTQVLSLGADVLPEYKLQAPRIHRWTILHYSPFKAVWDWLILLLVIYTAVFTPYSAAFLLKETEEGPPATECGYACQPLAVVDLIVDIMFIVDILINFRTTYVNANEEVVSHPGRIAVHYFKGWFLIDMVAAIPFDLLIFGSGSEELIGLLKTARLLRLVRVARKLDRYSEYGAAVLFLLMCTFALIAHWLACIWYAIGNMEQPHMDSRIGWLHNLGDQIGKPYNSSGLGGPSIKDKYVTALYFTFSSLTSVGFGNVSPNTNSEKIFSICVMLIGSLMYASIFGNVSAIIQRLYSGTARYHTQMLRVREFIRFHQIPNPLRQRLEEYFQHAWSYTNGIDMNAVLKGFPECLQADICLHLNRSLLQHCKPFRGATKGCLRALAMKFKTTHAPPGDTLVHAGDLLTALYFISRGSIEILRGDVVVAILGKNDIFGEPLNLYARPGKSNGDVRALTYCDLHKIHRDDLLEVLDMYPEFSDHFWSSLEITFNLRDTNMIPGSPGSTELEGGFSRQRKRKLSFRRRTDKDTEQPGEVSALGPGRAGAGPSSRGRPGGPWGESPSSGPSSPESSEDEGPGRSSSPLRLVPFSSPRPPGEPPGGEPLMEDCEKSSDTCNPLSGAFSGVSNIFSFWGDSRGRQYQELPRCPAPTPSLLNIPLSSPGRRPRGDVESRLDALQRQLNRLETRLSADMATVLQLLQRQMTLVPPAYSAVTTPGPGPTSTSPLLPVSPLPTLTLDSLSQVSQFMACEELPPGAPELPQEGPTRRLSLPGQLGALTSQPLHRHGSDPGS

[15] = Inhibition of CYP450 (unknown origin); type: ADME; conditions: human
[16] = Induction of CYP450 (unknown origin); type: ADME; conditions: human
[17] = tested on: Mus musculus; assay: Antidiabetic activity in human GPR40 knock-in mouse assessed as reduction in blood glucose level at 10 mg/kg, po administered via gavage 1 hr before glucose challenge by oral glucose tolerance test; type: functional, organism-based; design: dose 10 mg/kg
[18] = tested on: Mus musculus; assay: Antidiabetic activity in human GPR40 knock-in mouse assessed as reduction in glucose AUC at 10 mg/kg, po administered via gavage 1 hr before glucose challenge by oral glucose tolerance test; type: functional
[19] = tested on: Islets of langerhans; assay: Induction of insulin secretion in human GPR40 knock-in mouse pancreatic islets
[20] = Plasma concentration in mouse at 1 mg/kg, po measured for 4 hrs; type: ADME, organism-based; design: dose 1 mg/kg, route oral
[21] = tested on: Plasma; assay: […] in mouse plasma at 1 mg/kg, po; type: ADME, organism-based; design: dose 1 mg/kg, route oral; conditions: in vivo
[22] = Clearance in rat at 0.5 mg/kg, iv; type: ADME, organism-based; design: dose 0.5 mg/kg, route intravenous; conditions: in vivo

T1 sequence (O14842 whole entry): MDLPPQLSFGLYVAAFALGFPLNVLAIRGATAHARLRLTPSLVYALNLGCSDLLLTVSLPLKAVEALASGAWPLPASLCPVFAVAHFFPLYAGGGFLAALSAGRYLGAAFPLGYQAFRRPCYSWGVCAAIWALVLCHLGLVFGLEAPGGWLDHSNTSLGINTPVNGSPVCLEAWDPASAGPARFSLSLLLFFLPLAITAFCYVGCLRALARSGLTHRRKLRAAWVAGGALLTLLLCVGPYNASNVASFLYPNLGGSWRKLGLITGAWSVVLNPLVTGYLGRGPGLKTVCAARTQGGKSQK

Row | EC50 [1] | EC50 [2] | MRT [3] | Vd [4] | bioavailability [5] | SMILES | further results
1 | 33 nM | 11 nM | 2.5 h | 3.5 L/kg | 18% | Cc1cc(Cl)ccc1-c1cccc(COc2ccc([C@H](CC(=O)O)c3ncnn3C)cc2)c1 | 
2 | 12 nM | 1.3 nM | 5.2 h | 14.3 L/kg | 53% | Cc1cc(Cl)ccc1-c1cccc(COc2ccc([C@H](CC(=O)O)c3nnnn3C)cc2)c1 | 
3 |  |  | 10 h | 0.58 L/kg | 84% | CC#C[C@@H](CC(=O)O)c1ccc(OCc2cccc(-c3ccc(C(F)(F)F)cc3)c2)cc1 | 
4 | 33 nM | 7.6 nM | 2.4 h | 0.73 L/kg | 48% | Cc1cc(Cl)ccc1-c1cccc(COc2ccc([C@H](CC(=O)O)c3nccn3C)cc2)c1 | clearance [22]: 5.17 mL/min/kg
5 | 65 nM |  | 3.6 h | 1.5 L/kg |  | Cc1nc(-c2ccc(C(F)(F)F)cc2)sc1COc1ccc([C@H](CC(=O)O)c2ncnn2C)cc1 | 
6 | 69 nM |  |  |  |  | Cc1nc(-c2ccc(C(F)(F)F)cc2)sc1COc1ccc([C@H](CC(=O)O)c2ncco2)cc1 | 
7 | 57 nM | 9 nM |  |  |  | Cc1nc(-c2ccc(C(F)(F)F)cc2)sc1COc1ccc([C@H](CC(=O)O)c2cnco2)cc1 | 
8 | 41 nM | 3.8 nM | 0.74 h | 3.2 L/kg | 6.7% | Cc1nc(-c2ccc(C(F)(F)F)cc2)sc1COc1ccc([C@H](CC(=O)O)c2nnnn2C)cc1 | 
9 | 36 nM |  |  |  |  | CC#C[C@@H](CC(=O)O)c1ccc(OCc2cccc(-c3ccc(Cl)cc3C)c2)cc1 | 
10 | 73 nM | 16 nM | 3.7 h | 0.64 L/kg |  | Cc1nc(-c2ccc(C(F)(F)F)cc2)sc1COc1ccc([C@H](CC(=O)O)c2nccn2C)cc1 | 

Row | SMILES | EC50 [1] | EC50 [2] | MRT [3] | Vd [4] | bioavailability [5] | further results
11 | Cc1nc(-c2ccc(C(F)(F)F)cc2)sc1COc1ccc([C@H](CC(=O)O)c2ccon2)cc1 | 36 nM | 3.6 nM |  | 0.68 L/kg | 77% | half-life [6]: 5.3 h; half-life [7]: 5.6 h; Vd [8]: 0.6 L/kg; bioavailability [9]: 100%; half-life [10]: 14 h; Vd [11]: 0.35 L/kg; bioavailability [12]: 65%; Kp at 3 h [13]: 0.02; inhibition (INH) [14]: Not Active; inhibition (INH) [15]: Not Active; Activity [16]: Not Active; inhibition [17]: Active; inhibition in vivo at 10 mg/kg [18]: 19%; EC50 [19]: 55 nM; concentration at 4 h [20]: 2000 nM; Cp(f) [21]: 8 nM
